Values belong to the compound of their own block, whether it stands above or below them.
Tests used:
Assay in all cases: tRNA aminoacylation competition assay, MALDI-TOF MS
Type in all cases: biochemical
[1] = molecular target: T1, HisRS (Escherichia coli, UniProt P60906); settings: 15000 µM; 15 µM natural His (Table 3), 6 mM ATP, 17 mM MgCl2, E. coli total tRNA, pH 7.4, 37 °C; competitive
T1 construct: gene hisS; His-tagged, recombinant, purified
T1 sequence (P60906 2-424): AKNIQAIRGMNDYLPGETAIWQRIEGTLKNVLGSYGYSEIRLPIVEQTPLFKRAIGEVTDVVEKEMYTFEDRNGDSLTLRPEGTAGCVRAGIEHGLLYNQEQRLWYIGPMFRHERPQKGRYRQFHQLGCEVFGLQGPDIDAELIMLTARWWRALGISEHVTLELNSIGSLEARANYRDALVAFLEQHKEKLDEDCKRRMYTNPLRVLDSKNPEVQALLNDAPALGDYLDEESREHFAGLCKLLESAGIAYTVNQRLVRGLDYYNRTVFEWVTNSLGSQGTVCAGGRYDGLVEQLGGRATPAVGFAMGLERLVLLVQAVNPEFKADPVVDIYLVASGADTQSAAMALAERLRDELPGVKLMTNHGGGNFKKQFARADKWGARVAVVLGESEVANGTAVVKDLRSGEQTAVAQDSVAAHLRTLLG
Text: tRNA aminoacylation competition assay, MALDI-TOF MS on HisRS

[2] = molecular target: T2, TyrRS (Escherichia coli, UniProt P0AGJ9); settings: 5000 µM; 5 µM natural Tyr (Table 3), 6 mM ATP, 17 mM MgCl2, E. coli total tRNA, pH 7.4, 37 °C; competitive
T2 construct: gene tyrS; His-tagged, recombinant, purified
Text: tRNA aminoacylation competition assay, MALDI-TOF MS on TyrRS

[3] = molecular target: T3, GluRS (Escherichia coli, UniProt P04805); settings: 10000 µM; 10 µM natural Glu (Table 3), 6 mM ATP, 17 mM MgCl2, E. coli total tRNA, pH 7.4, 37 °C; competitive
T3 construct: gene gltX; His-tagged, recombinant, purified
T3 sequence (P04805 1-471): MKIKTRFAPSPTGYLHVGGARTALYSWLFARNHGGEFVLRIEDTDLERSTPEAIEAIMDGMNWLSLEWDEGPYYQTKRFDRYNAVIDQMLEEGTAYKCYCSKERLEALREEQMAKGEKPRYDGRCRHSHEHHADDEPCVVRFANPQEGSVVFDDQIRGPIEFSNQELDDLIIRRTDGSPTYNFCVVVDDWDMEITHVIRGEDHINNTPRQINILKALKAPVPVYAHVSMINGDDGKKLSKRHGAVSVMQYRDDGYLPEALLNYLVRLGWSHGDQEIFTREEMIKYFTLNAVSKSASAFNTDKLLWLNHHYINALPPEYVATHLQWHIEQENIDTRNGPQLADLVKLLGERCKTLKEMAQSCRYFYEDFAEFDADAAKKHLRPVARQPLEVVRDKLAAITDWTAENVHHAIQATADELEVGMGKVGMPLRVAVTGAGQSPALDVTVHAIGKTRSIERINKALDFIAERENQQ
Text: tRNA aminoacylation competition assay, MALDI-TOF MS on GluRS

[4] = molecular target: T4, TrpRS (Escherichia coli, UniProt P00954); settings: 30000 µM; 30 µM natural Trp (Table 3), 6 mM ATP, 17 mM MgCl2, E. coli total tRNA, pH 7.4, 37 °C; competitive
T4 construct: gene trpS
Text: tRNA aminoacylation competition assay, MALDI-TOF MS on TrpRS

[5] = molecular target: T5, AspRS (Escherichia coli, UniProt P21889); settings: 50000 µM; 50 µM natural Asp (Table 3), 6 mM ATP, 17 mM MgCl2, E. coli total tRNA, pH 7.4, 37 °C; competitive
T5 construct: gene aspS; His-tagged, recombinant, purified
Text: tRNA aminoacylation competition assay, MALDI-TOF MS on AspRS

[6] = molecular target: T6, ArgRS (Escherichia coli, UniProt P11875); settings: 20000 µM; 20 µM natural Arg (Table 3), 6 mM ATP, 17 mM MgCl2, E. coli total tRNA, pH 7.4, 37 °C; competitive
T6 construct: gene argS; His-tagged, recombinant, purified
T6 sequence (P11875 1-577): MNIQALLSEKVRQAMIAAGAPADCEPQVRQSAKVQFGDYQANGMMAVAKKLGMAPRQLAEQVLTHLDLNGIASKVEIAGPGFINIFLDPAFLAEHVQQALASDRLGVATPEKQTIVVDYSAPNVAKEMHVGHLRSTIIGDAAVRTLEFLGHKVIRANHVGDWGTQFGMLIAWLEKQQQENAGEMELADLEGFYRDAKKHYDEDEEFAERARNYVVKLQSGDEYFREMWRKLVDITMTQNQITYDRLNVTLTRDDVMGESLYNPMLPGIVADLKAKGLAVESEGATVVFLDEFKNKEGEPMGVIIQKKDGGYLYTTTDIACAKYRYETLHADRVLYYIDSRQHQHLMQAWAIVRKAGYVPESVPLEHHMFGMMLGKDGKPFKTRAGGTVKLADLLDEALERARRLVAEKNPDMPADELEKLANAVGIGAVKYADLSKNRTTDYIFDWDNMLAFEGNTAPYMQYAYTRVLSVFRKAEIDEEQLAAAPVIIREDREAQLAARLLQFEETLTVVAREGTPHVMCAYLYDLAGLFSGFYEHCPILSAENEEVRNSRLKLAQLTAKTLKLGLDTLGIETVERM
Text: tRNA aminoacylation competition assay, MALDI-TOF MS on ArgRS

[7] = molecular target: T7, MetRS (Escherichia coli, UniProt P00959); settings: 50000 µM; 50 µM natural Met (Table 3), 6 mM ATP, 17 mM MgCl2, E. coli total tRNA, pH 7.4, 37 °C; competitive
T7 construct: gene metG; His-tagged, recombinant, purified
T7 sequence (P00959 2-677): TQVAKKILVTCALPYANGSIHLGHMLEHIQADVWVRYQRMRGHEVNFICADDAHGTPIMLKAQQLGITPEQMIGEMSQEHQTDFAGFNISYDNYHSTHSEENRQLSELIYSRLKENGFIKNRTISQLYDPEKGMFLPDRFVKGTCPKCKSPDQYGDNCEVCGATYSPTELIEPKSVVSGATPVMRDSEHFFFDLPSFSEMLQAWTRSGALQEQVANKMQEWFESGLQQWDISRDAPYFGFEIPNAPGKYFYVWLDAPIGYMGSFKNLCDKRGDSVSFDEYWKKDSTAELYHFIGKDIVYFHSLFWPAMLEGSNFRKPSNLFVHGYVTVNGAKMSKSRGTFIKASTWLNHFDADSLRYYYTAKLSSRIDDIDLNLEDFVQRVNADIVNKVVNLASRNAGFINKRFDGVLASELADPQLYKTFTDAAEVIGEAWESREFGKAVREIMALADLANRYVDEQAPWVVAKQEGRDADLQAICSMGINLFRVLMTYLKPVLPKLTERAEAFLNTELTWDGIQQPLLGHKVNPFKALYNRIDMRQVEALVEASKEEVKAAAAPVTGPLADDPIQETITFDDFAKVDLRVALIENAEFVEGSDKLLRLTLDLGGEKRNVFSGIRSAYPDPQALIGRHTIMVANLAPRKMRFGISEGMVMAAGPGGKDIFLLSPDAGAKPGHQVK
Text: tRNA aminoacylation competition assay, MALDI-TOF MS on MetRS

[8] = molecular target: T8, ValRS (Escherichia coli, UniProt P07118); settings: 50000 µM; 50 µM natural Val (Table 3), 6 mM ATP, 17 mM MgCl2, E. coli total tRNA, pH 7.4, 37 °C; competitive
T8 construct: gene valS; His-tagged, recombinant, purified
T8 sequence (P07118 1-951): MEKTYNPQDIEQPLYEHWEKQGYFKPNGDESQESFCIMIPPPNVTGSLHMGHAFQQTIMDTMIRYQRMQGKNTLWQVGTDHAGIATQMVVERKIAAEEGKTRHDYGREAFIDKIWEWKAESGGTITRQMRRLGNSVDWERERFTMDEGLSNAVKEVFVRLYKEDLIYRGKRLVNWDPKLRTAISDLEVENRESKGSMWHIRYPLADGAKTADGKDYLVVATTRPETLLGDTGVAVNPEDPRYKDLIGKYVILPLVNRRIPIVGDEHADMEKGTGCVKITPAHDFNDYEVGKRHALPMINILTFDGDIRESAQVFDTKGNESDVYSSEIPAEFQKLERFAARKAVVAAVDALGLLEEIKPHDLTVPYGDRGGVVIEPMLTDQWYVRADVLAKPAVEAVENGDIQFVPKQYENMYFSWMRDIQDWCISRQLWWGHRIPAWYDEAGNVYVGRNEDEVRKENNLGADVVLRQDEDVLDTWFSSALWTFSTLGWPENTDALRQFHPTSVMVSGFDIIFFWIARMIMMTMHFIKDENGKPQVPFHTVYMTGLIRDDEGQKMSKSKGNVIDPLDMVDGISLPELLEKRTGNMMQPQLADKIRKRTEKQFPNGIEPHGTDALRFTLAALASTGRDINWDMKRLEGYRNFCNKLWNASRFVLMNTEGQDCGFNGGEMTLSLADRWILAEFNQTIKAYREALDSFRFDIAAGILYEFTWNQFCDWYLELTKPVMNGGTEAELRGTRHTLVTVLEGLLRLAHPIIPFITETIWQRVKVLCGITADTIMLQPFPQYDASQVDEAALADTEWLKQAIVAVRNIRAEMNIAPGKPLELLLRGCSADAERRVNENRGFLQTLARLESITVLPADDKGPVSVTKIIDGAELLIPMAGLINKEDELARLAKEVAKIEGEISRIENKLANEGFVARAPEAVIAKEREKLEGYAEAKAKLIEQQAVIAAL
Text: tRNA aminoacylation competition assay, MALDI-TOF MS on ValRS

[9] = molecular target: T9, LeuRS (Escherichia coli, UniProt P07813); settings: 30000 µM; 30 µM natural Leu (Table 3), 6 mM ATP, 17 mM MgCl2, E. coli total tRNA, pH 7.4, 37 °C; competitive
T9 construct: gene leuS; His-tagged, recombinant, purified; wild-type
Text: tRNA aminoacylation competition assay, MALDI-TOF MS on LeuRS

[10] = molecular target: T10, ProRS (Escherichia coli, UniProt P16659); settings: 50000 µM; 50 µM natural Pro (Table 3), 6 mM ATP, 17 mM MgCl2, E. coli total tRNA, pH 7.4, 37 °C; competitive
T10 construct: gene proS; His-tagged, recombinant, purified
T10 sequence (P16659 1-572): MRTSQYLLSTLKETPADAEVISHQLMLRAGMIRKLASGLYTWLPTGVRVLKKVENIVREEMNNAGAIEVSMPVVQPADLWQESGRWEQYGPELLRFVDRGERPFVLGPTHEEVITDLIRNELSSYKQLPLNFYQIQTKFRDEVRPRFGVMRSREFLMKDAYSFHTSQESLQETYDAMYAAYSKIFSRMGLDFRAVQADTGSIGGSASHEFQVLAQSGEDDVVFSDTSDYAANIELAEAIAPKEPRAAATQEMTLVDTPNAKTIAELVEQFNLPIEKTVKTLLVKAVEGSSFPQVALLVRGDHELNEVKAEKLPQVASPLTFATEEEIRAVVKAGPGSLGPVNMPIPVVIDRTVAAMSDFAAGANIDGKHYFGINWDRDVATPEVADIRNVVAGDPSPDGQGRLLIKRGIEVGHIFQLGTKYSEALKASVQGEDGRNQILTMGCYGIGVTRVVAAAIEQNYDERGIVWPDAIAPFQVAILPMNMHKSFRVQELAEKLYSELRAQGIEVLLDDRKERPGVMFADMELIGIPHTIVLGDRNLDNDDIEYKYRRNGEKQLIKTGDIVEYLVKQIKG
Text: tRNA aminoacylation competition assay, MALDI-TOF MS on ProRS

Structure (SMILES): N[C@@H](Cc1nccs1)C(=O)O [A1, β-2-thiazolyl-alanine]
- % Inhibition ^b [1]: 20 (range 0.4) %

Structure (SMILES): NC(Cc1ccc(O)c(F)c1)C(=O)O (stereo not drawn) [A3, 3-fluoro tyrosine]
- % Inhibition ^b [2]: 46 (range 23.0) %

Structure (SMILES): N[C@@H](Cn1oc(=O)[nH]c1=O)C(=O)O [A15, L-quisqualic acid]
- % Inhibition ^b [3]: 52 (range 1.2) %

Structure (SMILES): N[C@@H](Cc1csc2ccccc12)C(=O)O [A23, 3-(thianaphthen-3-yl)-L-alanine]
- % Inhibition ^b [4]: 19 (range 2.7) %

Structure (SMILES): N[C@H](C(=O)O)[C@H](O)C(=O)O [C6, L-threo-β-hydroxy aspartic acid]
- % Inhibition ^b [5]: 59 (range 0.5) %

Structure (SMILES): N=C(N)NOCC[C@H](N)C(=O)O [C10, L-canavanine]
- % Inhibition ^b [6]: 82 (range 10.3) %

Structure (SMILES): O=C(O)[C@@H]1CCN1 [N24, L-azetidine-2-carboxylic acid]
- % Inhibition ^b [10]: 28 (range 10.0) %

Structure (SMILES): NC1(C(=O)O)CCCC1 [α1, 1-amino cyclopentanoic acid]
- % Inhibition ^b [8]: 59 (range 3.3) %

Other lines, results leading:

- % Inhibition ^b [7]: 82 (range 3.3) %
Structure (SMILES): C#CCCC(N)C(=O)O (stereo not drawn) [N1, 2-amino hex-5-ynoic acid]

- % Inhibition ^b [7]: 73 (range 0.5) %
Structure (SMILES): CCCC[C@H](N)C(=O)O [N3, L-norleucine]

- % Inhibition ^b [7]: 97 (range 0.5) %
Structure (SMILES): [N-]=[N+]=NCC[C@H](N)C(=O)O [N6]

- % Inhibition ^b [8]: 80 (range 0.4) %
Structure (SMILES): CC(C)(C)C(N)C(=O)O (stereo not drawn) [N13, t-butyl-glycine]

- % Inhibition ^b [9]: 83 (range 16.7) %
Structure (SMILES): CC(CC(N)C(=O)O)C(F)(F)F (stereo not drawn) [N17, 5′,5′,5′-trifluoro leucine]

- % Inhibition ^b [9]: 52 (range 22.2) %
Structure (SMILES): CC(C)(C)C[C@H](N)C(=O)O [N18, β-t-butyl-alanine]

- % Inhibition ^b [10]: 67 (range 12.6) %
Structure (SMILES): O=C(O)[C@@H]1C=CCN1 [N23, 3,4-dehydro proline]

From PMC1989143, “An Expanded Set of Amino Acid Analogs for the Ribosomal Translation of Unnatural Peptides” (PLoS ONE, 2007)
